The results in this text go back to patent US8834870B2, “Treatment of leukemias and chronic myeloproliferative diseases with antibodies to EphA3” (Kalobios Pharmaceuticals, Inc., priority 2009, dated 2014).

One experiment deals with EphA3 antigen (UniProt P29320). As to the kind of experiment: ELISA on EphA3 antigen.
The test system of experiment [1] is peripheral blood cells from polycythemia vera (PV) patient. The experiment is described as follows: Apoptosis induction (Annexin V flow cytometry), PV primary cells. In kind it is cell-based, human. The settings on record: sample PB-2, PV; camptothecin 10 μM positive control; 24 hours. The method, then:
(§1) An engineered human activating antibody that binds to EphA3 was evaluated for the ability to induce apoptosis in vitro in primary cells isolated from patients or individuals suffering from myeloproliferative disorders. Cells were seeded at 2.5×10^5 cells/well in 96-well “U”-bottom plates in 0.1 ml culture medium (RPMI 1640 with 10% fetal bovine serum). Anti-EphA3 antibody or human IgG1 isotype control antibody was added to final concentrations between 10 μg/ml and 1 ng/ml and the plates were incubated at 37° C. and 5% carbon dioxide in a tissue-culture incubator for 24 hours. As a positive control for apoptosis induction, separate cell samples were incubated with camptothecin (10 μM; Calbiochem). At the end of the incubation, cells were harvested and washed by centrifugation at 1000 rpm for 5 min followed by incubation in 0.1 ml of 1× Annexin V binding buffer (BD Pharmingen, Cat #556547, component no. 51-66121E) containing 5 μl FITC-conjugated Annexin V (BD Pharmingen, component no. 51-65874×) and 5 μl Propidium Iodide (component no. 51-66211E) for 15 minutes at room temperature in the dark. Four hundred μl of 1× binding buffer was added to each tube and annexin V-staining apoptotic cells were identified by flow cytometry. FIG. 4 provides data showing apoptosis activity of a human engineered antibody.

In experiment [2] the test system is peripheral blood cells from essential thrombocythemia (ET) patient. As to the kind of experiment: Apoptosis induction (Annexin V flow cytometry), ET primary cells. In kind it is cell-based, human. To be noted: sample PB-1, ET; camptothecin 10 μM positive control; 24 hours. On the procedure:
as §1

Experiment [3] relates to bone marrow cells from AML patients. The experiment is described as follows: Apoptosis induction (Annexin V flow cytometry), AML primary cells. In kind it is cell-based, human. The settings on record: camptothecin 10 μM positive control, 24 hours. The method, then:
An engineered human activating antibody that binds to EphA3 was evaluated for the ability to induce apoptosis in vitro in primary cells isolated from patients or individuals suffering from myeloproliferative disorders. Cells were seeded at 2.5×10^5 cells/well in 96-well “U”-bottom plates in 0.1 ml culture medium (RPMI 1640 with 10% fetal bovine serum). Anti-EphA3 antibody or human IgG1 isotype control antibody was added to final concentrations between 10 μg/ml and 1 ng/ml and the plates were incubated at 37° C. and 5% carbon dioxide in a tissue-culture incubator for 24 hours. As a positive control for apoptosis induction, separate cell samples were incubated with camptothecin (10 μM; Calbiochem). […]
In these samples, in each case in which CD123^+CD34^+CD38^− leukemic stem cells (LSC) could be identified, 100% of these LSC were also positive for EphA3 expression. In the majority of samples, there is good correlation between the percent of cells killed either by ADCC or apoptosis mediated by an engineered human anti-EphA3 antibody and the proportion of cells detected as positive for EphA3 by flow cytometry, indicating specificity of the antibody for EphA3-expressing cells.

Chain of UniProt P29320 (P29320 21-541 limits assumed): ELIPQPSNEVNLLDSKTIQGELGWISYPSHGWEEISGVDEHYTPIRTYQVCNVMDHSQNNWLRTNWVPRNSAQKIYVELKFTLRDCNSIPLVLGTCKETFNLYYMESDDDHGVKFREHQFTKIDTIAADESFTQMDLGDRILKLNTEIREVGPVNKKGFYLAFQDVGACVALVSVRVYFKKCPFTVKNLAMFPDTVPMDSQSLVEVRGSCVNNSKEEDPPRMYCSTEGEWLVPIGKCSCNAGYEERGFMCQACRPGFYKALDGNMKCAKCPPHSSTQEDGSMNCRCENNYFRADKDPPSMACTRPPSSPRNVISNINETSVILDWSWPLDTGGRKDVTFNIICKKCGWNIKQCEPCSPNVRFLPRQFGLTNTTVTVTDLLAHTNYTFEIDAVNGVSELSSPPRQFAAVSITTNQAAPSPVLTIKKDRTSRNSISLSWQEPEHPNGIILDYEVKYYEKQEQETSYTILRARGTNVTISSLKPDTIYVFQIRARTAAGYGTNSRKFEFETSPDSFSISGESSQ

Turning to monoclonal antibody IIIA4, the AFFINITY with EphA3 antigen is 2.5 nM.
`CC[C@@]1(O)C(=O)OCc2c1cc1n(c2=O)Cc2cc3ccccc3nc2-1` [Camptothecin, camptothecin]: the “Camptothecin-mediated apoptosis (% cell death)” value in experiment [1] amounted to 73.2%; in experiment [2], 78%; in experiment [3] (sample BM, 06, AML) it was 59.8%; in experiment [3] (sample BM, 07, AML) it was 47.8%.
